Here are results for 37 compounds from publication PMC5867641, “Function-Oriented Synthesis of Marine Phidianidine Derivatives as Potential PTP1B Inhibitors with Specific Selectivity” (Marine Drugs, 2018).

In general, inhibition refers to the drop in the measured response relative to a control, in per cent. A word on the IC50: it is the point on the concentration scale where inhibition reaches its midpoint.

The target of one experiment is T1, PTP1B (Homo sapiens, UniProt P18031).
T1 sequence (P18031 1-435): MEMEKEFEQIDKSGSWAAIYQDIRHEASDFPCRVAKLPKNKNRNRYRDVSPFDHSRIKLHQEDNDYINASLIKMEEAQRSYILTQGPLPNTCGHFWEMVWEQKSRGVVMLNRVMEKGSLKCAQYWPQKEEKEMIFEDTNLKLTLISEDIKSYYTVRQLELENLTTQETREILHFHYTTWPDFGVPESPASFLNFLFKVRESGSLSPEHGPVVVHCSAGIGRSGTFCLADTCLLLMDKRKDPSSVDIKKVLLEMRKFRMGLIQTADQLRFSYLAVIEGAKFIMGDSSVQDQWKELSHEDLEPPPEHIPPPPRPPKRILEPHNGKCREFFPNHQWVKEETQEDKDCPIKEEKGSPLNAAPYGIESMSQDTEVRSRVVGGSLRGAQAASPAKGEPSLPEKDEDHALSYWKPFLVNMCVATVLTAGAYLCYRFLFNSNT
Description: PTP1B inhibition assay with p-nitrophenyl phosphate (pNPP) as substrate. The conditions noted are these: for % Inhibition (20 μM) on PTP1B: 20 μM compound, 2% DMSO; for inhibition at 20 µM: read-out: % Inhibition (20 μM) on PTP1B; for PTP1B inhibitory activity, in words: screened at 20 μM.

The target of experiment [1] is T2, T-cell protein tyrosine phosphatase (TCPTP) (Homo sapiens, UniProt P17706).
T2 sequence (P17706 1-415): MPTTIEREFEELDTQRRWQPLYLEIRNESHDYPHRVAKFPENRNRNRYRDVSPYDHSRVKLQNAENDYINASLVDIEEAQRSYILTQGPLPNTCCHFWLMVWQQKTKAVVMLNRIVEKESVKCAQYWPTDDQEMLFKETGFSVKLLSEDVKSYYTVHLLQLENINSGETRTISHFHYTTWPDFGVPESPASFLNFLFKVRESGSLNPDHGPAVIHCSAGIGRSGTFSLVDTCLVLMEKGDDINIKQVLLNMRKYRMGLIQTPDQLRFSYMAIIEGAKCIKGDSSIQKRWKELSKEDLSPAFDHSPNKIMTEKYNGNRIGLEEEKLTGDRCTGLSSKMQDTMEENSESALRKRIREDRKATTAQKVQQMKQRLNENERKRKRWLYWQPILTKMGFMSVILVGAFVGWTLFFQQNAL
The experiment can be described thus: TCPTP inhibition assay (selectivity). To be noted: for inhibition at 20 µM / % Inhibition (20 μM) on TCPTP: 20 μM compound, 2% DMSO. The format is biochemical. How it is done: The selectivity of all the PTP1B inhibitory compounds was also evaluated against TCPTP.

The mark [2] stands for this setting: read-out: IC50 on PTP1B, pNPP substrate, dose-response run when inhibition >50% at 20 μM.

Where two headings read alike, the source gives them in different places. Some results are limits rather than exact numbers.

With `NC(=NOC(=O)Cc1c[nH]c2ccccc12)c1ccccc1` [9a], the “% Inhibition (20 μM) on PTP1B” value on PTP1B (pNPP substrate) came out at 7.3 ± 6.8%. Still for that read-out and setting: the figure for `NC(=NOC(=O)Cc1c[nH]c2ccccc12)c1ccc(F)cc1` [9b] is 14.0 ± 4.3%; for `NC(=NOC(=O)Cc1c[nH]c2ccccc12)c1ccc(Cl)cc1` [9c] it is 5.2 ± 1.8%; for `NC(=NOC(=O)Cc1c[nH]c2ccccc12)c1ccc([N+](=O)[O-])cc1` [9d] it is 9.8 ± 7.1%.

Take `CCc1ccc(C(N)=NOC(=O)Cc2c[nH]c3ccccc23)cc1` [9e]: the “% Inhibition (20 μM) on PTP1B” value on PTP1B (pNPP substrate) stood at 23.4 ± 3.7%. On the same count and under the same terms, next, `c1ccc(-c2noc(Cc3c[nH]c4ccccc34)n2)cc1` [10a]: 2.4 ± 1.2%; `Fc1ccc(-c2noc(Cc3c[nH]c4ccccc34)n2)cc1` [10b]: 19.8 ± 0.1%; `Clc1ccc(-c2noc(Cc3c[nH]c4ccccc34)n2)cc1` [10c]: 40.0 ± 7.6%. Turning to `O=[N+]([O-])c1ccc(-c2noc(Cc3c[nH]c4ccccc34)n2)cc1` [10d], the “% Inhibition (20 μM) on PTP1B” value at PTP1B (pNPP substrate) is given as 44.5 ± 0.3%. As to `CCc1ccc(-c2noc(Cc3c[nH]c4ccccc34)n2)cc1` [10e], the inhibition at 20 µM in experiment [1] turned out to be 15.8%; on PTP1B, 50.5 ± 1.1%. The compound further had an IC50 against PTP1B of 16.8 µM. For the compound `CCc1ccc(C(=O)ON=C(N)Cc2c[nH]c3ccccc23)cc1` [13a], at PTP1B (setting [2]), the IC50 is above 20 µM.

Consider `CCCCCCc1ccc(C(=O)ON=C(N)Cc2c[nH]c3ccccc23)cc1` [13c], for which the IC50 on PTP1B (setting [2]) was above 20 µM. On the same count and under the same terms, next, `NC(Cc1c[nH]c2ccccc12)=NOC(=O)c1ccccc1F` [13d]: above 20 µM. On to `NC(Cc1c[nH]c2ccccc12)=NOC(=O)c1ccc(C(F)(F)F)cc1` [13e], for which the IC50 at PTP1B (setting [2]) is above 20 µM.

For the compound `COc1ccc(C(=O)ON=C(N)Cc2c[nH]c3ccccc23)cc1` [13f], the IC50 at PTP1B (setting [2]) is above 20 µM.

As for `COc1ccc(C(=O)ON=C(N)Cc2c[nH]c3ccccc23)c(Br)c1` [13g], on PTP1B (setting [2]), the IC50 was above 20 µM. Same read-out and setting: the figure for `CCCCC(=O)ON=C(N)Cc1c[nH]c2ccccc12` [13h] is above 20 µM; for `NC(Cc1c[nH]c2ccccc12)=NOC(=O)CCCCBr` [13i] it is above 20 µM. `CCc1ccc(-c2nc(Cc3c[nH]c4ccccc34)no2)cc1` [14a] displayed an inhibition at 20 µM in experiment [1] of 9.22%. For the same compound, on PTP1B, the IC50 was 13.5 ± 0.6 µM. Take `CCCCc1ccc(-c2nc(Cc3c[nH]c4ccccc34)no2)cc1` [14b]: in experiment [1], the “% Inhibition (20 μM) on TCPTP” value stood at 50.31%. Besides, on PTP1B (setting [2]), the IC50 amounted to 7.1 ± 0.1 µM.

For `CCCCCCc1ccc(-c2nc(Cc3c[nH]c4ccccc34)no2)cc1` [14c], the “% Inhibition (20 μM) on TCPTP” value in experiment [1] was determined as 54.18%. Also, the IC50 at PTP1B (setting [2]) is 4.9 ± 0.8 µM. As to `Fc1ccccc1-c1nc(Cc2c[nH]c3ccccc23)no1` [14d], at PTP1B (setting [2]), the IC50 is above 20 µM. The “PTP1B inhibitory activity, in words” value at PTP1B is on record as “no activity”.

Turning to `FC(F)(F)c1ccc(-c2nc(Cc3c[nH]c4ccccc34)no2)cc1` [14e], the IC50 at PTP1B (setting [2]) is above 20 µM. Turning to `COc1ccc(-c2nc(Cc3c[nH]c4ccccc34)no2)cc1` [14f], on PTP1B (setting [2]), the IC50 was above 20 µM. Besides, at PTP1B, the “PTP1B inhibitory activity, in words” value was “no activity”. For `COc1ccc(-c2nc(Cc3c[nH]c4ccccc34)no2)c(Br)c1` [14g], the IC50 on PTP1B (setting [2]) was above 20 µM. On to `CCCCc1nc(Cc2c[nH]c3ccccc23)no1` [14h], for which the concentration for half-maximal inhibition (IC50) at PTP1B (setting [2]) is above 20 µM. In addition, the “PTP1B inhibitory activity, in words” value at PTP1B is “disappearance of the inhibitory activity”. Consider `CC(=O)OCCCCc1nc(Cc2c[nH]c3ccccc23)no1` [14i], for which the IC50 on PTP1B (setting [2]) was above 20 µM. Also, the “PTP1B inhibitory activity, in words” value at PTP1B is “disappearance of the inhibitory activity”. `CC(C)c1nc(Cc2c[nH]c3ccccc23)no1` [14j]: the IC50 at PTP1B (setting [2]) is above 20 µM. As for `ClC(Cl)c1nc(Cc2c[nH]c3ccccc23)no1` [14k], the IC50 on PTP1B (setting [2]) was above 20 µM.

On to `c1ccc2c(Cc3noc(C4CCC4)n3)c[nH]c2c1` [14l], for which the “% Inhibition (20 μM) on TCPTP” value in experiment [1] is reported as 25.52%. The IC50 on PTP1B (setting [2]) was 8.6 ± 1.5 µM. In the case of `c1ccc2c(Cc3noc(C4CCCC4)n3)c[nH]c2c1` [14m], the IC50 at PTP1B (setting [2]) was above 20 µM. The “PTP1B inhibitory activity, in words” value on PTP1B is “lack of activity”. On to `c1ccc2c(Cc3noc(C4CCCCC4)n3)c[nH]c2c1` [14n], for which the “% Inhibition (20 μM) on TCPTP” value in experiment [1] stood at 11.68%. In addition, the “TCPTP inhibitory activity, in words” value in experiment [1] (at the concentration of 20 μM) is listed as “lowest inhibitory percentage”. In addition, the IC50 at PTP1B (setting [2]) was determined as 5.3 ± 0.7 µM.

Take `c1ccc(-c2nc(Cc3c[nH]c4ccccc34)no2)nc1` [14o]: the half-inhibitory concentration (IC50) at PTP1B (setting [2]) is above 20 µM. Still for that read-out and setting: next, `Fc1ccc2[nH]cc(Cc3nc(Cc4c[nH]c5ccccc45)no3)c2c1` [14q]: above 20 µM. For the compound `Brc1ccc2[nH]cc(Cc3nc(Cc4c[nH]c5ccccc45)no3)c2c1` [14s], the “% Inhibition (20 μM) on TCPTP” value in experiment [1] is 34.51%. At PTP1B (setting [2]), the IC50 amounted to 7.4 ± 0.1 µM.

For `Clc1cccc2[nH]cc(Cc3nc(Cc4c[nH]c5ccccc45)no3)c12` [14u], in experiment [1], the “% Inhibition (20 μM) on TCPTP” value is listed as 38.74%. Besides, the IC50 at PTP1B (setting [2]) amounted to 9.7 ± 1.7 µM. As to `N=C(N)NCCCCCNc1noc(Cc2c[nH]c3ccccc23)n1` [Phidianidine B (2), phidianidine B, reference compound], the inhibition at 20 µM on PTP1B was 23.5 ± 2.6%.
